Two molecules from ChEMBL document CHEMBL4049383, “Emergence of Small-Molecule Non-RGD-Mimetic Inhibitors for RGD Integrins” (J Med Chem, 2017) can be followed below.

A value given as a limit tells only on which side of the number the result lay.

Series [1] deals with Integrin alpha-IIb/beta-3 (Homo sapiens, UniProt P05106+P08514).
Description: Displacement of [3H]UR-3189 from integrin alpha2b beta3 receptor in resting human platelet
A short description of series [2]: Stability of the compound in human microsomes. The format is ADME, Microsome. The note with it: read-out: Stability.

Integrin alpha-IIb/beta-3, sequence (P05106 27-788 limits assumed): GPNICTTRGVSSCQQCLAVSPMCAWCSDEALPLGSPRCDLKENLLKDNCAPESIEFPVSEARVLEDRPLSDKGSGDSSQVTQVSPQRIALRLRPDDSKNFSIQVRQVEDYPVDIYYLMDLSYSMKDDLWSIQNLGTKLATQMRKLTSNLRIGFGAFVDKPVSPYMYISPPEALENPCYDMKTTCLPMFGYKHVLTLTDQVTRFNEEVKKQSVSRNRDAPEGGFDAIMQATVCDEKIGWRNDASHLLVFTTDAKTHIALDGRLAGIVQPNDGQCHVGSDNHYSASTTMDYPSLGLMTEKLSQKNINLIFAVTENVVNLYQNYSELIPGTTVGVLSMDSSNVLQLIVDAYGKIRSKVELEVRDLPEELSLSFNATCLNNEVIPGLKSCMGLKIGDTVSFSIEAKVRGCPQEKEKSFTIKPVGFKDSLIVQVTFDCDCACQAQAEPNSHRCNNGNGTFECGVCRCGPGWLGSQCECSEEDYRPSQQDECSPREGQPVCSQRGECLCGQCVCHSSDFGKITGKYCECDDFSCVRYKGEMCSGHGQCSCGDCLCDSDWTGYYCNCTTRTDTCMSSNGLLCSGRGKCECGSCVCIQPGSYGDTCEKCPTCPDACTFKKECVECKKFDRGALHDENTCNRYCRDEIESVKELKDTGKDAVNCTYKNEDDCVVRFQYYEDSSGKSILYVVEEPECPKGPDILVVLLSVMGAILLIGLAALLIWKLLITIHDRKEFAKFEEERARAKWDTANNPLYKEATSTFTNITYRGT
Integrin alpha-IIb/beta-3, sequence (P08514 32-887 limits assumed): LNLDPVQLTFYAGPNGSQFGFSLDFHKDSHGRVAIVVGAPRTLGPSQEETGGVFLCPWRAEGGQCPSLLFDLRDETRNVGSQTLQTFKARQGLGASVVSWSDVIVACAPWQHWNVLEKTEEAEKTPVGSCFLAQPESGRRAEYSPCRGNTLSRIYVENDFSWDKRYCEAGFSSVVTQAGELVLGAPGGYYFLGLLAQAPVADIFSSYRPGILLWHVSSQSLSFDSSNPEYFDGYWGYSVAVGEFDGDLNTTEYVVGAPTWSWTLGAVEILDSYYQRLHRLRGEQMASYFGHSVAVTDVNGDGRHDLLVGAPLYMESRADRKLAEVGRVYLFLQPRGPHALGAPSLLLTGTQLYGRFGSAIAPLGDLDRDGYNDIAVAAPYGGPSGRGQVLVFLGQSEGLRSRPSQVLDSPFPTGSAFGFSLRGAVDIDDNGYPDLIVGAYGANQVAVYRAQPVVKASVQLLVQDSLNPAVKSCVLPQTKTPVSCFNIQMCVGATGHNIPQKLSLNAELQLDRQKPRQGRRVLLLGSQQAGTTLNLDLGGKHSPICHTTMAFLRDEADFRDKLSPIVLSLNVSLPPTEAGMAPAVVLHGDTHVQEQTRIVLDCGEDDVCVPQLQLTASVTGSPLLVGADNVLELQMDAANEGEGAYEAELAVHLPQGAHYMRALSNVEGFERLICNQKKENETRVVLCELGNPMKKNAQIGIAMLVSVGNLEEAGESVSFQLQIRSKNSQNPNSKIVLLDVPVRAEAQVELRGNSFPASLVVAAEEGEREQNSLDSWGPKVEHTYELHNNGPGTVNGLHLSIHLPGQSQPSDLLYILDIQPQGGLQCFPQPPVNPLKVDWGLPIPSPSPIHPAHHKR
Integrin alpha-IIb/beta-3, sequence (P08514 891-1039 limits assumed): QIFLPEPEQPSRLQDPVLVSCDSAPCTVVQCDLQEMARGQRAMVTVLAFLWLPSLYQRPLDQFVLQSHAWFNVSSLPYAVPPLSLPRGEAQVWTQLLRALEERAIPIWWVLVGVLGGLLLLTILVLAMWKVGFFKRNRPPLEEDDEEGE

`[H]/N=C(\N)c1ccc(C(=O)N[C@@H](Cc2ccc([N+](=O)[O-])cc2)C(=O)N2CCc3nn(CC(=O)O)cc3C2)cc1` came in with a Ki in series [1] below 1 nM.

Consider `NCC(=O)Nc1cncc(-c2nn3c(=O)cc(N4CCNCC4)nc3s2)c1` [ZALUNFIBAN], for which the microsomal CLint in series [2] was 23.2 µL/min/mg.
